From PubChem BioAssay (NCI)
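Values below derive from 48-hour exposures of cells grown in 96-well plates, with endpoints linearly interpolated between the two concentrations bracketing the appropriate inhibition level. TGI: total growth inhibition.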

What was measured:
Test in all cases: growth of human tumour cells (NCI), 48 h
NCI-H460 lung = tested on: NCI-H460 lung
COLO 205 colon = tested on: COLO 205 colon
SK-OV-3 ovarian = tested on: SK-OV-3 ovarian
SNB-75 CNS = tested on: SNB-75 CNS
SNB-19 CNS = tested on: SNB-19 CNS
NCI/ADR-RES ovarian = tested on: NCI/ADR-RES ovarian
TK-10 renal = tested on: TK-10 renal
OVCAR-4 ovarian = tested on: OVCAR-4 ovarian
SR leukemia = tested on: SR leukemia
A498 renal = tested on: A498 renal
OVCAR-8 ovarian = tested on: OVCAR-8 ovarian
LOX IMVI melanoma = tested on: LOX IMVI melanoma
MDA-N = tested on: MDA-N
SF-539 CNS = tested on: SF-539 CNS
IGROV1 ovarian = tested on: IGROV1 ovarian
ACHN renal = tested on: ACHN renal
MOLT-4 leukemia = tested on: MOLT-4 leukemia
RXF 393 renal = tested on: RXF 393 renal
HOP-92 NSCLC = tested on: HOP-92 NSCLC
SK-MEL-28 melanoma = tested on: SK-MEL-28 melanoma
HOP-62 NSCLC = tested on: HOP-62 NSCLC
PC-3 prostate = tested on: PC-3 prostate
MDA-MB-231 breast = tested on: MDA-MB-231 breast
MCF7 breast = tested on: MCF7 breast
CAKI-1 renal = tested on: CAKI-1 renal
M14 melanoma = tested on: M14 melanoma
OVCAR-3 ovarian = tested on: OVCAR-3 ovarian
NCI-H23 lung = tested on: NCI-H23 lung
RPMI-8226 leukemia = tested on: RPMI-8226 leukemia
HL-60(TB) leukemia = tested on: HL-60(TB) leukemia
HT29 colon = tested on: HT29 colon
NCI-H226 lung = tested on: NCI-H226 lung
HS 578T breast = tested on: HS 578T breast
KM12 colon = tested on: KM12 colon
786-0 renal = tested on: 786-0 renal
UACC-257 melanoma = tested on: UACC-257 melanoma
SN12C renal = tested on: SN12C renal
MALME-3M melanoma = tested on: MALME-3M melanoma
CCRF-CEM leukemia = tested on: CCRF-CEM leukemia
SK-MEL-2 melanoma = tested on: SK-MEL-2 melanoma
SK-MEL-5 melanoma = tested on: SK-MEL-5 melanoma
U251 CNS = tested on: U251 CNS
EKVX NSCLC = tested on: EKVX NSCLC
A549 NSCLC = tested on: A549 NSCLC
HCT-116 colon = tested on: HCT-116 colon
T-47D breast = tested on: T-47D breast
SF-268 CNS = tested on: SF-268 CNS
MDA-MB-435 = tested on: MDA-MB-435
SW-620 colon = tested on: SW-620 colon
OVCAR-5 ovarian = tested on: OVCAR-5 ovarian
DU-145 prostate = tested on: DU-145 prostate
UACC-62 melanoma = tested on: UACC-62 melanoma
K-562 leukemia = tested on: K-562 leukemia
HCT-15 colon = tested on: HCT-15 colon
NCI-H522 lung = tested on: NCI-H522 lung
BT-549 breast = tested on: BT-549 breast
SF-295 CNS = tested on: SF-295 CNS
UO-31 renal = tested on: UO-31 renal

Measured: TGI

COc1ccc2cc(C(=O)CCC(=O)O)ccc2c1
> 100 µM: NCI-H460 lung | COLO 205 colon | SK-OV-3 ovarian | SNB-75 CNS | SNB-19 CNS | NCI/ADR-RES ovarian | TK-10 renal | OVCAR-4 ovarian | SR leukemia | A498 renal | OVCAR-8 ovarian | LOX IMVI melanoma | MDA-N | SF-539 CNS | IGROV1 ovarian | ACHN renal | MOLT-4 leukemia | RXF 393 renal | HOP-92 NSCLC | SK-MEL-28 melanoma | HOP-62 NSCLC | PC-3 prostate | MDA-MB-231 breast | MCF7 breast | CAKI-1 renal | M14 melanoma | OVCAR-3 ovarian | NCI-H23 lung | RPMI-8226 leukemia | HL-60(TB) leukemia | HT29 colon | NCI-H226 lung | HS 578T breast | KM12 colon | 786-0 renal | UACC-257 melanoma | SN12C renal | MALME-3M melanoma | CCRF-CEM leukemia | SK-MEL-2 melanoma | SK-MEL-5 melanoma | U251 CNS | EKVX NSCLC | A549 NSCLC | HCT-116 colon | T-47D breast | SF-268 CNS | MDA-MB-435 | SW-620 colon | OVCAR-5 ovarian | DU-145 prostate | UACC-62 melanoma | K-562 leukemia | HCT-15 colon | NCI-H522 lung | BT-549 breast | SF-295 CNS | UO-31 renal
